What was measured:
Assay type in all cases: cell-based
[1] = test system: cortical neurons and microglial cells injured with Aβ1-42; experiment: Rat primary culture of cortical neurons and microglial cells injured with Aβ1-42
Method: Pregnant female rat (Wistar) of 15 days of gestation were killed using a deep anesthesia with CO2 chamber and a cervical dislocation. Fetuses were collected and immediately placed in ice-cold L15 Leibovitz medium with a 2% penicillin (10,000 U/mL) and streptomycin (10 mg/mL) solution (PS) and 1% bovine serum albumin (BSA). Cortex were specifically dissected and then were treated for 20 min at 37° C. with a trypsin-EDTA solution at a final concentration of 0.05% trypsin and 0.02% EDTA. The dissociation was stopped by addition of Dulbecco's modified Eagle's medium (DMEM) with 4.5 g/L of glucose, containing DNAse I grade II (final concentration 0.5 mg/mL) and 10% fetal calf serum (FCS). Cells were mechanically dissociated by three forced passages through the tip of a 10-mL pipette. Cells were then centrifuged at 515×g for 10 min at 4° C. The supernatant was discarded, and the pellet was resuspended in a defined culture medium consisting of Neurobasal medium with a 2% solution of B27 supplement, 2 mmol/liter of L-glutamine, 2% of PS solution, 10 ng/mL of brain-derived neurotrophic factor (BDNF), 2% of heat-inactivated horse serum, 2% of heat-inactivated FCS, 1 g/L of glucose, 1 mM of sodium pyruvate, and 100 μM of non-essential amino acids. The presence of serum in the medium allows the growth of the microglial cells. Viable cells were counted in a Neubauer cytometer, using the trypan blue exclusion test.
The cells were seeded at a density of 45 000 per well in 96-well plate precoated with poly-L-lysine and were cultured at 37° C. in an air (95%)—CO2 (5%) incubator. The medium was changed every 2 days.
On day 11 of culture, the compounds were dissolved in the appropriate vehicle and pre-incubated with the primary cortical neurons for one hour (1 h), before Aβ1-42 exposure.
On day 11 of culture, the cortical neurons were injured with the AP 1-42 peptide. AP 1-42 peptide was dissolved in the defined culture medium mentioned above, at an initial concentration of 20 μM. The solution was gently agitated for 3 days at 37° C. in the dark and immediately used after being properly diluted in culture medium to the concentration used (5 μM, 0.5 μM oligomers precisely evaluated by automatic WB). The AP 1-42 solution was applied on the culture at […] (0.5 μM oligomers, AβO), in presence of the compound, for 72 hours.
72 hours after the application of Aβ, the cell culture supernatant was removed. Cells were then washed with phosphate-buffered saline (PBS) and fixed with a cold solution of ethanol (95%) and acetic acid (5%) for 5 min at −20° C. After two washing steps with cold PBS, cells permeabilized and unspecific binding sites were blocked with a solution of PBS containing 0.1% of saponin and 1% of FCS, for 15 min at RT. Cells were incubated for 2 hours with: • a) Monoclonal anti-MAP2 antibody produced in mouse at dilution of 1/400 in PBS containing 1% FCS, 0.1% saponin, for 2 hours at room temperature. • b) Rabbit polyclonal antibody anti-SIRP alpha/CD172a (OX-41) at dilution of 1/400 in PBS containing 1% fetal calf serum and 0.1% of saponin (this antibody stains specifically the microglia and will allow to evaluate the activation of the microglial cells).
For each condition, 30 pictures (representative of the whole well area) were automatically taken using ImageXpress® (Molecular Devices) at 20× magnification using the same acquisition parameters. From images, the analyses were automatically performed by MetaXpress® (Molecular Devices). The following read-outs were measured: • Total neuron survival (number of MAP-2(+) neurons), • Total length of neurite network of MAP-2(+) neurons (in μm) • Total area of activated microglia (area of OX-41 signal, in μm^2)
All values are expressed as mean+/−SEM (standard error of the mean). Statistical analysis was performed by one-way ANOVA followed by Fisher's LSD test, with GraphPad Prism. p<0.05 was considered significant.

mouse T lymphocytes = experiment: Mitochondrial content (Mitotracker positive cells) in mouse T lymphocytes; details: 2 μM, 72 h
Method: Splenic murine T cells were isolated from mice aged 6-20 weeks by negative selection with EasySep mouse T cell isolation kit (Stem cell) according to the manufacturer's instructions. T cell activation was initiated using CD3/CD28 activation beads (11456D; ThermoFisher Scientific) at a ratio of 25 μl dynabeads per 0.5×10^6 T-cells. Cells were activated with test compounds at 2 μM or DMSO in T cell activation Medium (RPMI (ThermoFisher Scientific) 10% FBS (South America origin), 10 mM Hepes (Sigma), 1× Non-Essential Amino Acid, 1 mM Sodium Pyruvate, 50 μM β-Mercaptoethanol, 100 U/ml penicillin, 100 μg/ml streptomycin and 2 mM Glutamax (ThermoFisher Scientific) for 72 h. For subsequent analysis, activating beads were magnetically removed prior staining.
For flow cytometric analysis of mitochondria 500 μl of Mitotracker Red (200 nM; ThermoFisher) was applied followed by surface staining.
Cell doublets and cells debris were excluded from the analysis by gating FSC-A vs FSC-H followed by SSC-A vs SSC-H dot plots and FSC-A vs SSC-A dot plots, respectively. eFluor 780 highly positive cells, i.e, dead cells, were gated out of the analysis. Data was acquired on Canto II (BD), Fortessa (BD) and Aurora (Cytek) cytometers and analyzed with FlowJo.

splenic murine T cells = experiment: Murine T cells stimulated with αCD3/αCD28 in presence of UA; details: ICG001 10 μM plus UA 50 μM, 48 h
Method: Splenic murine T cells were isolated from mice aged 6-20 weeks by negative selection with EasySep mouse T cell isolation kit (Stem cell) according to the manufacturer's instructions. To monitor T cell proliferation, purified T cells were loaded with CellTrace Violet (C34557 ThermoFisher Scientific). T cell activation was initiated using αCD3/CD28 activation beads (11456D; ThermoFisher Scientific) at a ratio of 25 μl dynabeads per 0.5×106 T-cells. Cells were activated with 25-50 μM Urolithin A (Tocris) or DMSO in T cell activation Medium (RPMI (ThermoFisher Scientific) 10% FBS (South America origin), 10 mM Hepes (Sigma), 1×Non-Essential Amino Acid, 1 mM Sodium Pyruvate, 50 µM β-Mercaptoethanol, 100 U/mL penicillin, 100 μg/mL streptomycin and 2 mM Glutamax (ThermoFisher Scientific) for the indicated durations. In selected experiments, cells were stimulated in the presence of inhibitors, namely TCFli (ICG-001; SelleckChem; […]) and PGC-lai (SR-18292, Sigma-Aldrich; […]). For subsequent analysis, activating beads were magnetically removed prior antibody staining. For human T cells, peripheral blood mononuclear cells were purified with a Ficoll-Paque (GE healthcare) gradient. T cells were enriched with EasySep Human T Cell Isolation Kit (StemCell) and activated with dynabead Human T-Activator CD3/CD28 for T Cell Expansion and Activation Kit (11131D; ThermoFisher Scientific), similar to murine T cell stimulation. When the subsequent activation and expansion of CAR T cells was studied, plates were coated with 1 μg/mL anti-human CD3 (αCD3; clone OKT3) and thawed PBMC were cultivated with […] anti-human CD28 (αCD28; 15E8, both Miltenyi Biotec) containing media for three days. (NutriT media (4Cell® Nutri-T media (Sartorius) containing 0.5% penicillin/streptomycin) supplemented with IL-7 (25 U/mL) and IL-15 […] (all Miltenyi Biotec)).
Tumors were minced and digested with Tumor & Tissue Dissociation Reagent (BD Horizon) for 30 min. The remaining organ pieces were filtered through a 70 µm cell strainer. Cells were then washed with PBS 1% BSA and 2 mM EDTA. Immune cells were enriched on a 30%/40%/75% Percoll gradient after a 1700 rpm 17 min centrifugation. Then, tumor immune filtrates or activated T cells were stained with Fixable Viability Dye-eF780 (65-0865-14; eBioscience), αCD45-FITC (30-F11; 11-0451-85; eBioscience), αCD11b-BV650 (M1/70; 56340; BD) α-CD11c-BV785 (HL3; 563735; BD), aLy6G-BV605 (53-6.7; 563005; BD), aLy6C-AF700 (HK1.4; 128024; Biolegend), aF4/80-PE (BM8; 12-4801-82, eBioscience), aPD-L1-PECy7 (MIH5; 25-5982-80, eBioscience); or with Fixable Viability Dye-eF780 (ebioscience), αCD45-BV786 (30-F11; 564225; BD), αCD4-BUV496 (GK1.5; 564667; BD), αCD8-BV605 (100744; Biolegend), aPD1-APC (J43; 17-9985-82; eBioscience), aTIM-3-PECy7 (RMT3-23; 119715; Biolegend), aCTLA4-PE (UC10-4B9; 106305; Biolegend) and aLag3-BV421 (C9B7W; 125221, Biolegend); or with Fixable Viability Dye-eF780 (eBioscience), αCD4-FITC (H129.19; 553650; BD), αCD8-APC (53-6.7; 17-0081-83; eBioscience), αCD44-AF400 (IM7; 103026; Biolegend), αCD62L-BV785 (MEL-14; 104440; Biolegend), αSca-1-PerCP-Cy5.5 (D7; 45-5981-82; eBioscience), αCD95-PE (Jo2; 554258; BD); or with Fixable Viability Dye-eF780 (eBioscience), αCD8-BV650 (53-6.7; 563234; BD), αCD4-BUV496 (GK1.5; 564667; BD), αCD127-APC (A7R34; 17-1271-82; eBioscience), αCD95-FITC (SA367H8;152605; Biolegend), αCD44-AF400 (IM7; 103026; Biolegend), αCD62L-BV785 (MEL-14; 104440; Biolegend), αSca-1-PerCP-Cy5.5 (D7; 45-5981-82; eBioscience) followed by intracellular staining of aTCF1-PE (S33-966; 564217; BD), or PGC-1α (sc-518025; D-5; santa cruz), or aCyclinD1 (MA5-28534, DCS-6; Invitrogen) with transcription factor buffer set kit (BD Biosciences). To study cytokine expression, tumor immune infiltrates were stimulated ex vivo with 20 ng/mL PMA and […] Ionomycin (Sigma) for 3 h in T cell activation medium with Brefeldin A (Biolegend). […]

[2] = 125 and 250 nM, Aβ1-42 72 hours

Compound | microglial activation (conclusion) [1] | neuroprotection in the inflammatory in vitro model (conclusion) [1] | microglial activation (OX-41) [1, 2] | neurite network of cortical neurons (MAP-2) [1, 2] | survival of cortical neurons (MAP-2) [1, 2] | increase in the percentage of Mitotracker positive cells vs DMSO (mouse T lymphocytes) [%] | percentage of Mitotracker positive cells (mouse T lymphocytes; DMSO 44%) [%] | UA-induced TSCM formation in presence of TCF-1 inhibitor (splenic murine T cells)
Cc1cc2c(cc1O)OC(C)(C)c1cc(O)c(C)cc1-2 [117A, 2,6,6,9-tetramethyl-6H-benzo[c]chromene-3,8-diol] | significantly reduce | neuroprotective | decrease | significantly protect | significantly protect | 30 | 57.3 | –
O=C1[C@H](Cc2ccc(O)cc2)N2C(=O)CCN(C(=O)NCc3ccccc3)[C@H]2CN1Cc1cccc2ccccc12 [ICG001] | – | – | – | – | – | – | – | abrogated
